Reference: patent publication US20240285670A1, “THERAPEUTIC TREATMENT OF TUMORS BY BLOCKING THE HEME SYNTHESIS-EXPORT AXIS” (Università degli Studi di Torino, priority 2021, published 2024)

Columns and labels:
ALAS1 = assay: qRT-PCR analysis of ALAS1 expression in SHSY5Y cells; assay type: cell-based, human; details: 5 mM ALA for 15 hours vs non-treated
Protocol: (A) Heme content in SHSY5Y cells non-treated (NT) or treated with 5 mM ALA for 15 hours. Values are expressed as pmol heme/mg protein. Data represent mean±SEM, n=3; *=P<0.05. (B, C) qRT-PCR analysis of the expression of ALAS1 (B) and FLVCR1a (C) in SHSY5Y cells non-treated (NT) or treated with 5 mM ALA for 15 hours. Transcript abundance, normalized to beta-actin mRNA expression, is expressed as a fold increase over a calibrator sample. Data represent mean±SEM, n=4. For statistical analyses, an unpaired Student's t-test was used; *p<0.05. (D) qRT-PCR analysis of the expression of ALAS1 in SKCO1 cells untreated (NT) or treated with 5 mM ALA for 24 hours. Transcript abundance, normalized to beta-actin mRNA expression, is expressed as a fold increase over a calibrator sample. Data represent mean±SEM, n=5. […] Band intensities were measured by densitometry and normalized to beta-actin expression. […] (F) Proliferation of SHSY5Y cells assessed by crystal violet staining at different time points (starting from the day after plating, named “day 0”). Treatment with 5 mM ALA occurred at “day 0” and cells were monitored until the end of the experiment without medium refresh. […] (G) SKCO1 cells viability measured by the CellTiter-Fluor Cell Viability Assay (Promega, Madison, WI USA, catalog n°G6080) at different time points, starting from the day after plating (named “day 0”), as a readout of cell proliferation. […]

Caco2 cells = assay: Mitochondrial ATP levels in Caco2 cells; assay type: cell-based, human; details: FLVCR1a-silenced vs scramble shRNA Caco2 cells
Excerpt: (A, C, E) Activities of the mitochondrial electron transport chain complexes I-IV. FLVCR1a-silenced Caco2 (A), SKCO1 (C) or C80 cells (E) are compared to cells expressing a scramble shRNA. Results were expressed as nmol NAD^+/min/mg mitochondrial protein for complex I, nmol reduced cytochrome c/min/mg mitochondrial protein for complexes II-III, nmol oxidized cytochrome c/min/mg mitochondrial protein for complex IV. Data represent mean±SEM, n=3. For statistical analyses, an unpaired Student's t-test was used; *=p<0.05, **=p<0.01. (B, D, F) Mitochondrial ATP levels measured by a bioluminescent assay kit. FLVCR1a-silenced Caco2 (B), SKCO1 (D) or C80 cells (F) are compared to cells expressing a scramble shRNA. Results are expressed as nmol/mg mitochondrial proteins. […] Results were expressed as nmol NAD^+/min/mg mitochondrial protein for complex I, nmol reduced cytochrome c/min/mg mitochondrial protein for complexes II-III, nmol oxidized cytochrome c/min/mg mitochondrial protein for complex IV. […] (H) Mitochondrial ATP levels measured by a bioluminescent assay kit in Caco2 cells overexpressing FLVCR1a (indicated as FLVCR1a+) compared to cells stably transduced with an empty vector. Results are expressed as nmol/mg mitochondrial proteins. […]
ATP levels in mitochondria extracts were assessed by the ATP Bioluminescent Assay Kit (Sigma-Aldrich, St. Louis, MO USA, catalog n° FLAA). […]

Compound	ALAS1 transcript levels (ALAS1)	ATP levels in mitochondria (Caco2 cells)
Cl.NCC(=O)CCC(=O)O [5-ALA, 5-Aminolevulinic acid hydrochloride]	reduced	–
FLVCR1a shRNA: shRNA specifically down-regulating FLVCR1a without targeting FLVCR1b; pLKO.1 lentiviral clone TRCN0000059599, antisense SEQ ID No.: 2 (antisense TTGCTAATGATGCTGTACTGG; sense CCAGTACAGCATCATTAGCAA)	–	significantly higher ATP levels in mitochondria
